Reference: patent US8178579B2, “Dioxanes and uses thereof” (President and Fellows of Harvard College, priority 2001, dated 2012)

Legend:
HeLa cells = test: high throughput microscopy of HeLa cells; assay type: cell-based; conditions: single-compound assays
Source text: The cellular basis of these phenotypes has not been investigated. No phenotypes consistent with mitotic arrest were observed.

Ure2p-controlled genes = test: whole-genome transcription profiling of yeast strains; assay type: cell-based; conditions: 100 μM, 30 min
Description: FIG. 25 depicts transcription profiling of treatment with uretupamine. (A) The left microarray corresponds to wild-type cells (PM38) treated with vehicle (DMF) versus wild type (w.t.) cells treated for 30 min with uretupamine A at 100 μM. The right microarray corresponds to ure2Δ cells (PH2) treated with vehicle versus ure2Δ cells treated for 30 min with uretupamine A at 100 μM. Profiles were obtained as described (Hardwick et al. Proc. Natl. Acad. Sci. USA 1999, 96, 14866-14870). At the right are shown specific gene inductions of some URE2-dependent genes from the microarrays. PM38 (MATaleu2-3,112 ura3-52), PM71 (MA4Taleu2-3, 112 ura3-52 gln3Δ5::LEU2), MS221 (MATaura3-52 nil1::hisG), PH2 (MATaleu2-3, 112 ura3-52 ure2Δ12::URA3) were gifts from B. Magasanik and M. Brandriss. (B) The transcription profiles of wild-type cells (PM38), ure2Δ cells (PH2), gln3Δ cells (PM71) and nil1Δ cells (MS221) grown in YPD medium treated for 30 min with 100 μM uretupamine B were obtained. The geometric means of gene inductions of the sets listed are shown. (C) An analysis was performed based on treating individual profiles as high-dimensional vectors and then examining the ratios of their magnitudes as a measure of relative activity (Shamji et al. Curr. Biol. 2000, 10, 1574-1581; Kuruvilla et al. Genome Biol. 2002, 3(3), 0011.1-0011.11).
To determine the precise effects and specificity of uretupamine, whole-genome transcription profiling was used in wild-type cells as well as an otherwise isogenic ure2D strain-a ‘targetless’ strain (Marton et al. Nature Med 1998, 4, 1293-1301). […] The expression of other genes (including GAP1, MEP2, AGP1, BAT2 and DAL5) controlled by Ure2p was essentially unchanged (FIG. 25A,B).

Ure2p [1] = target: T1, Ure2p (Saccharomyces cerevisiae, UniProt P23202); test: PUT1-lacZ reporter β-galactosidase assay; assay type: cell-based; conditions: yeast in YPD, 30 °C, 60-90 min; rapamycin 50 nM
T1 construct: endogenous in cells; host or cells: yeast strain DB26-3A (MAT-a ura3-52 ade2 PUT1-lacZ)
T1 sequence (P23202 1-354): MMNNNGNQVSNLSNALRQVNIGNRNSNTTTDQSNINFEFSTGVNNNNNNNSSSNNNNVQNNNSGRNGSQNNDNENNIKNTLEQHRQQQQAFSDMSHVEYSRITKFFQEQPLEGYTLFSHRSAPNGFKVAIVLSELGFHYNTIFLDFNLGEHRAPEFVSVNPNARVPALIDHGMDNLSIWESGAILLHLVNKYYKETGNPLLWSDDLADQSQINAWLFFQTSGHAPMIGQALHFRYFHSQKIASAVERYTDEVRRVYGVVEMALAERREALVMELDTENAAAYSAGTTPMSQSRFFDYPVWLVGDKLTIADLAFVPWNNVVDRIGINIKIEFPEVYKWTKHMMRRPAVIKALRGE
Description: (§1) FIG. 24 depicts studies in vivo, dose response and structure-activity relationships of uretupamine. (A) A yeast strain (DB26-3A) growing in YPD medium expressing a PUT1-lacZ reporter was treated with 50 nM rapamycin or with a compound that had been detected to bind to labelled Ure2p on a small-molecule microarray. After 90 min of treatment at 30° C., a standard liquid b-galactosidase assay was performed. Data are expressed in fold Miller units compared with treatment with 50 nM rapamycin for 90 minutes. DB26-3A (MAT-a ura3-52 ade2 PUT1-lacZ) was a gift from M. Brandriss. Vehicle: samples treated with N,N-dimethylformamide (DMF), the vehicle into which library compounds were dissolved (B): Uretupamine A was resynthesized and tested in the b-galactosidase assay by using the PUT1-lacZ reporter at the concentrations indicated for 60 min at 30 C in YPD medium. (C) Compounds derived from the uretupamine A structure were synthesized to explore structure-activity relationships. Listed are b-galactosidase assay results of treatment with each compound at 100 μM (asterisk designates 50 μM) for 60 min at 30 C in YPD medium. Data are in percentage Miller units compared with treating with 50 nM rapamycin for 60 min. […] (D) Binding of uretupamine B to Ure2p was determined by using surface plasmon resonance (BIAcore 3000) to have a dissociation constant of 7.5 μM. […]

[2] = solubility in yeast medium; assay type: physicochemical; conditions: higher concentrations
Ure2p [3] = target: T1, Ure2p; test: surface plasmon resonance (BIAcore 3000) binding to immobilized Ure2p; set-up: species or system yeast; conditions: PBS/Tween-20 with 10% DMF, read-out: equilibrium dissociation constant for binding to Ure2p
Description: as §1

HDAC6 = target: T2, HDAC6 (Homo sapiens, UniProt Q9UBN7); test: HDAC assay, [3H]acetate-incorporated histones with immunoprecipitated FLAG-tagged HDAC6 (HDAC6F); assay type: biochemical; set-up: made in house; host or cells: TAg Jurkat cells, transient transfection, anti-FLAG M2 immunoprecipitation; conditions: calculated IC50, data in duplicate, at least two experiments; read-out: IC50 against HDAC6
T2 sequence (Q9UBN7 1-1215): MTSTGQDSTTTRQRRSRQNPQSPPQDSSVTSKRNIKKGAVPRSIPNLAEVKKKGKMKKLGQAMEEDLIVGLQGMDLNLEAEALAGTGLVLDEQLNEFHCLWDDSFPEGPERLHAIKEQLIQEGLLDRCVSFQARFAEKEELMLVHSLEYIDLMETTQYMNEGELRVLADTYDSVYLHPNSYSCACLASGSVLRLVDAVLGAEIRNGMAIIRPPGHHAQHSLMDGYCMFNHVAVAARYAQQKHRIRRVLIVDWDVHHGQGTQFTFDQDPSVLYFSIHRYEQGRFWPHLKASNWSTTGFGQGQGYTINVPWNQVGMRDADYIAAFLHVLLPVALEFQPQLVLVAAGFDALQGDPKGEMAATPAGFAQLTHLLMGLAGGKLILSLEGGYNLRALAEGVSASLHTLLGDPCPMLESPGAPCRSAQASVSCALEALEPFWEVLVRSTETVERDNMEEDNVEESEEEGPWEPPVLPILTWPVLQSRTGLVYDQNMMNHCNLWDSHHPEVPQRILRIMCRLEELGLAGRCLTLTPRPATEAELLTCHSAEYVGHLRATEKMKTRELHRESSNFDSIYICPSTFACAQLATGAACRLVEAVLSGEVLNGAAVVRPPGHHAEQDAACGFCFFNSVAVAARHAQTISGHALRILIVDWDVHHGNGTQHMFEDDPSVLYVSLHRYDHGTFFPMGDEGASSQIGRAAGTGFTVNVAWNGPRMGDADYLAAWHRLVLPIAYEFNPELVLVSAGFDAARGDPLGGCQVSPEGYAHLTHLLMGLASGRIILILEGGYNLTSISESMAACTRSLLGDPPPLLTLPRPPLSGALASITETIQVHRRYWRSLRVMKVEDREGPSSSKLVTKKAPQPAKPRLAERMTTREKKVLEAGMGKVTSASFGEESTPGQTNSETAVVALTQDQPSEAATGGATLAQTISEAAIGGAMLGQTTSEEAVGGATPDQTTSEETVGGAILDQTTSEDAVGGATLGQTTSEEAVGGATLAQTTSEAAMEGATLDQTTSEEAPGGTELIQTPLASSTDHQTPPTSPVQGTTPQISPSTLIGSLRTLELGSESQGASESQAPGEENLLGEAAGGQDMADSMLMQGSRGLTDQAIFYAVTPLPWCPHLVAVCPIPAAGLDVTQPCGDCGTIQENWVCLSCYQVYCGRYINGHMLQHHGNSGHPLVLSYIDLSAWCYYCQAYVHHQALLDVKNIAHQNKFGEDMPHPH
Description: (§2) Cell culture and Transfections. TAg-Jurkat cells were transfected by electroporation with 5 μg of FLAG-epitope-tagged pBJ5 constructs (as described in ref. 5c) for expression of recombinant proteins. Cells were harvested 48 h posttransfection.
HDAC assays. […] Compounds were added in DMSO such that final assay concentrations were 1% DMSO. IC50s were calculated using Prism 3.0 software. Curve fitting was done without constraints using the program's Sigmoidal-Dose Response parameters. All data points were acquired in duplicate and IC50s are calculated from the composite results of at least two separate experiments.
Tubulin and MAPs were isolated from bovine brain as described [See http://mitchison.med.harvard.edu/protocols/tubprep.html]. Whole brain and fractions from phosphocellulose chromatography were blotted for HDAC6 and acetylated α-tubulin. Cultured hippocampal neurons from dissociated 1-day old rat brains were transfected with an enhanced green fluorescent protein (EGFP)-actin construct at 4-5 days using the calcium phosphate method [E. N. Star, D. J. Kwiatkowski and V. N. Murthy, Nat. Neurosci. […] K. Miranti and M. E. Greenberg, J. Neurosci. […] Transfected cultures were allowed to grow for at least 48 h before the addition of experimental compounds.
[^3H]Acetate-incorporated histones were isolated from butyrate-treated HeLa cells as described [J. Taunton, C. […] Immunoprecipitates were incubated with acetylated histones and HDAC activity determined by scintillation counting as described [J. Taunton, C. […] TDAC assays were performed with immunoprecipitates using MAP-stabilized microtubules polymerized from MAP-rich tubulin fraction as described [C. […] Reactions were incubated (2 h) at 37° C., then incubated on ice (15 min).

HDAC1 = target: T3, HDAC1 (Homo sapiens, UniProt Q13547); test: HDAC assay, [3H]acetate-incorporated histones with immunoprecipitated FLAG-tagged HDAC1; assay type: biochemical; conditions: calculated IC50, data in duplicate, at least two experiments; read-out: IC50 against HDAC1
T3 construct: made in house; host or cells: TAg-Jurkat cells, transient transfection, then immunoprecipitation
T3 sequence (Q13547 whole entry): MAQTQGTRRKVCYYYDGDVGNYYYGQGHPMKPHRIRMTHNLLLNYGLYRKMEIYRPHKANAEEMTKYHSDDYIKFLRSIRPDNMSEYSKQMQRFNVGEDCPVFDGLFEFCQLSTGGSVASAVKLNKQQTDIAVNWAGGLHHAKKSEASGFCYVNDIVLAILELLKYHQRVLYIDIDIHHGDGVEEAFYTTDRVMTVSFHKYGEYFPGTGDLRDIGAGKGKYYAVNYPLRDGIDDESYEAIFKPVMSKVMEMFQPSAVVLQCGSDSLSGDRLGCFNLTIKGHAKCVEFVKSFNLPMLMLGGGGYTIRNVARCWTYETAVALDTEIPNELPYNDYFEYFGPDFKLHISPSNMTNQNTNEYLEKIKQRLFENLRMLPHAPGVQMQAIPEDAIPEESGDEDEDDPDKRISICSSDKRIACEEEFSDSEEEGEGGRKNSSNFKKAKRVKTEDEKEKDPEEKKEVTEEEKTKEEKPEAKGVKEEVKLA
Description: as §2
HDAC assays. [^3H]Acetate-incorporated histones were isolated from butyrate-treated HeLa cells by hydroxyapatite chromatography (as described in Tong, et al. Nature 1997, 395, 917-921.) Immunoprecipitates were incubated with 1.4 μg (10,000 dpm) histones for 3 h at 37° C. HDAC activity was determined by scintillation counting of the ethyl acetate-soluble [^3H]acetic acid (as described in Taunton, et al., Science 1996, 272, 408-411). Compounds were added in DMSO such that final assay concentrations were 1% DMSO. IC50s were calculated using Prism 3.0 software. Curve fitting was done without constraints using the program's Sigmoidal-Dose Response parameters. All data points were acquired in duplicate and IC50s are calculated from the composite results of at least two separate experiments.

In the case of O=S(=O)(NCc1ccc(C2O[C@H](CSc3ccc(O)cc3)C[C@H](c3ccc(CO)cc3)O2)cc1)c1ccccc1 (mixture of isomers) [compound 12, (±)-N-[[4-(4R,6S)-4-[4-(hydroxymethyl)phenyl]-6-[[4-hydroxyphenyl)thio]methyl]-1,3-dioxan-2-yl]phenyl]methyl-benzenesulfonamide], the “phenotype in HeLa cells by microscopy” value (HeLa cells) is reported as “altered actin staining phenotype”.

For NCc1ccc([C@@H]2O[C@H](CSc3nc(-c4ccccc4)c(-c4ccccc4)o3)[C@@H](c3ccccc3)[C@H](c3ccc(CO)cc3)O2)cc1 (relative stereo) [uretupamine A], the “gene induction in ure2Δ strain” value (Ure2p-controlled genes) was “little or no effect on either set of genes”, the “gene induction in wild-type cells” value (Ure2p-controlled genes) was “upregulated only a subset of genes” and the “activation of PUT1-lacZ reporter” value (Ure2p [1]) was “gave a concentration dependent dose response that at higher concentrations approached the levels of reporter gene activation induced by rapamycin”. For the same molecule, the “solubility in yeast medium” value [2] was “poor solubility at higher concentrations in yeast medium” and the Kd (Ure2p [3]) was 18.1 µM.

In the case of NCc1ccc([C@@H]2O[C@H](CSc3nc(-c4ccccc4)c(-c4ccccc4)o3)C[C@H](c3ccc(CO)cc3)O2)cc1 (relative stereo) [uretupamine B], the “gene induction in gln3Δ strain” value (Ure2p-controlled genes) is reported as “deleting GLN3 had little effect on the actions of uretupamine”, the “gene induction in nil1Δ strain” value (Ure2p-controlled genes) is reported as “deleting NIL1 abrogated its actions” and the “gene induction in ure2Δ strain” value (Ure2p-controlled genes) is reported as “little or no effect on either set of genes”. The “gene induction in wild-type cells” value (Ure2p-controlled genes) was “upregulated only a subset of genes”, the “activation of PUT1-lacZ reporter” value (Ure2p [1]) was “more potent than uretupamine A” and the “solubility in yeast medium” value [2] was “more soluble derivative”. It also gave a Kd (Ure2p [3]) of 7.5 µM.

With Cc1ccc(S(=O)(=O)N[C@@H](Cc2ccccc2)C(=O)Nc2cccc(C3O[C@H](CN4CCC(O)(c5ccc(Cl)cc5)CC4)[C@H](C)[C@H](c4ccc(CO)cc4)O3)c2)cc1 (stereo partly shown) [compound 11] the IC50 (HDAC6) was over 50 µM, the “phenotype in HeLa cells by microscopy” value (HeLa cells) was “cell detachment” and the IC50 (HDAC1) was over 50 µM.
